The text below walks through data of patent US20040156782A1, “Methods of using indocyanine green (ICG) dye” (Akorn, Inc., priority 2003, published 2004).

This data set can be described thus: HPLC stability of reconstituted aqueous ICG composition (% label claim over time). In kind it is physicochemical. As for the experimental part:
The HPLC testing utilized a Supelcosil LC-18-DB, 3 μm, 4.6×150 mm HPLC column and a supelcosil LC-18-DB, 3 μm, 4.6×33 mm guard column. The mobile phase, which consists of 0.1% phosphoric acid (Solvent A) and 100% acetonitrile (Solvent B), was fed to the columns at a flow rate of 1 ml/min, with the mobile phase composition being varied as follows:
An ICG standard was then prepared by dissolving approximately 5.5 mg of ICG (IC-GREEN™) in 10.0 ml of a diluent comprising acetonitrile and water in a 1:1 ratio. The ICG samples to be measured (IC-GREEN™) were then prepared by diluting each sample in the same diluent (1:1 acetonitrile to water) such that the estimated concentration of ICG in each sample was approximately 0.5 mg/ml. The dilution factor was determined by dividing the final volume of the sample by the volume of the ICG sample aliquot initially added. Then, five 10.0 μL quantities of the ICG standard were injected into the HPLC column and the mean peak area was determined. Next, a series of 10.0 μL injections of the samples was completed, and the mean peak area for each sample was determined. The ICG concentration for each sample was then calculated using the following formula:
[ICG in mg/ml]=[STD](ASX/ASTD)(DF)
where [STD] is the ICG concentration of the standard, ASX is the mean peak area of the sample, ASTD is the mean peak area of the standard, and DF is the dilution factor. The relative concentration of ICG present in the sample (wt. % label claim) was then determined by dividing the concentration of the sample by the initial concentration upon dissolution, then multiplying the result by one hundred.

As for `CC1(C)C(/C=C/C=C/C=C/C=C2\N(CCCCS(=O)(=O)O)c3ccc4ccccc4c3C2(C)C)=[N+](CCCCS(=O)(=O)[O-])c2ccc3ccccc3c21` [ICG, Indocyanine green], the “stability of aqueous compositions having relatively high ICG concentrations relative to relatively low ICG concentrations” value was “more stable”. Also, the “time after reconstitution at which ICG content corresponds to 95 wt. % based on the label claim” value (5 mg/ml reconstituted aqueous ICG composition) was “about 18 hours”. For the same compound, the “relative concentration (% label claim) of ICG in aqueous ICG composition” value (for more than ten hours after the lyophilized ICG is reconstituted) is “above 90 wt. %”.
